Test results: patent publication US8242102B2, “Quinoline compounds suitable for treating disorders that respond to modulation of the serotonin 5-HT6 receptor” (Abbott GmbH & Co. KG, priority 2007, dated 2012)
Where a name gives a salt, the structure may show the parent alone.

The compounds below were run against T1, dopamine D2 receptor (Homo sapiens, UniProt P14416) (assay: Dopamine D2 receptor binding assay, displacement of [125I]-iodospiperone). Details: saturation binding, HEK293 dopamine D2 membranes; read-out: KD of radioligand.
T1 construct: expressed in transfected cells; host or cells: HEK293
Experimental: (§1) 1. Preparation of Membranes by Ultrasonic Treatment and Differential Centrifugation
The pellets were stored at −80° C. until use. […] (Beckman Ultrazentrifuge XL 80).
(§2) 2. Receptor Binding Experiments
a) Dopamine D2 Receptor Binding Assay
Non-specific binding was defined with 1 μM haloperidol.

T1 sequence (P14416 whole entry): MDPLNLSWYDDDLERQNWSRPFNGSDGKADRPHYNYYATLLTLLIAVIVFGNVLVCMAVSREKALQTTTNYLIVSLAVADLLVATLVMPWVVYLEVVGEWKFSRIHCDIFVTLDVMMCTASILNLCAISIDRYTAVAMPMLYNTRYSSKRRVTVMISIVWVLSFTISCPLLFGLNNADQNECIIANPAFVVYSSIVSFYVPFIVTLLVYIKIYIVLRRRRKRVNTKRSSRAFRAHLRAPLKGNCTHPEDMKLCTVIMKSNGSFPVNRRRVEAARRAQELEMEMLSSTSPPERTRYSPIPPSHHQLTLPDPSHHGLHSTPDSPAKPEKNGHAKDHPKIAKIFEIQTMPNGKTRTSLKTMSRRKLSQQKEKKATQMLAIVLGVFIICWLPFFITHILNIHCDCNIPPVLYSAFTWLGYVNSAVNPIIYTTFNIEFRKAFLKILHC

Row | Compound | Kd [µM]
1 | iodospiperone [[^125I]-iodospiperone] | 0.00022

Each compound was assayed against T2, h-5-HT6 receptor (Homo sapiens, UniProt P50406) (assay: 5-HT6 receptor binding assay, displacement of [3H]-LSD). Details: membranes of HEK293 cells expressing h-5-HT6, 1 nM [3H]-LSD.
T2 construct: expressed in transfected cells; host or cells: HEK293
Experimental: Displacement of Radioligands Binding to the Following Cloned Human Receptors
as §1
Cells from stable clonal cell lines expressing the corresponding receptor (5-HT6, 1-adrenergic, dopamine D2 or histamine H1 receptors) were washed with PBS (w/o Ca^++, Mg^++) and harvested in PBS with 0.02% EDTA. The cells were collected by centrifugation at 500 g for 10 min. at 4° C., washed with PBS and centrifuged (500 g, 10 min. 4° C.). The pellets were stored at −80° C. until use. For membrane preparation, the thawed cell pellet was resuspended in ice-cold sucrose buffer (0.25 M sucrose, 10 mM Hepes (pH 7.4), 1 mM Phenylmethylsulfonyl fluoride (PMSF) in DMSO, […] Pepstatin-A, 3 mM EDTA, 0.025% Bacitracin) and homogenized with a Branson Sonifier W-250 (Settings: Timer 4; Output Control 3; Duty Cycle constant; 2 to 3 cycles). Cell disruption was checked with the aid of a microscope. Remaining unbroken cells were pelleted at 1,000 g for 10 min. at 4° C. The sucrose buffer supernatant was then centrifuged at 60,000 g for 1 h at 4° C. (Beckman Ultrazentrifuge XL 80). The pellet was resuspended in 30 ml ice-cold Tris buffer (20 mM TRIS (pH 7.4), […] Pepstatin A, 0.1 mM PMSF, 3 mM EDTA) by pipetting through a 10 ml serological pipet and centrifuged for 1 h at 4° C. at 60,000 g. A final resuspension was performed in a small volume of ice-cold Tris buffer (see above) by pressing through a serological pipet followed by ultrasonic treatment with a Branson Sonifier W-250 (Settings: Timer 1; Output Control 3; Duty Cycle constant; 1 cycle). Protein concentration was determined (BCA-Kit; Pierce) and aliquots stored at −80° C. or in liquid nitrogen for long-term storage.
as §2
All receptor binding experiments were carried out in the corresponding assay buffer in a total volume of 200 μl in the presence of various concentrations of test compound (10^−5 M to 10^−9 M, tenfold serial dilution, duplicate determinations). The assays were terminated by filtration on polyethylenimine (PEI 0.1% or 0.3%) presoaked Packard Unifilter Plates (GF/C or GF/B) with a Tomtec MachIII U 96 well-plate harvester. After the plates had been dried for 2 h at 55° C. in a drying chamber scintillation cocktail (BetaPlate Scint; PerkinElmer) was added. Radioactivity was measured in a Microbeta Trilux two hours after the addition of the scintillation mixture. Data derived from liquid scintillation counting were analysed by iterative non-linear regression analysis with the use of the Statistical Analysis System (SAS): a program similar to “LIGAND” as described by Munson and Rodbard (Analytical Biochemistry 107, 220-239 (1980).
a) 5-HT6 Receptor Binding Assay
HEK293 cells stably expressing the h-5-HT6 receptor (NCBI Reference Sequence XM 001435) were cultured in RPMI1640 medium supplemented with 25 mM HEPES, 10% fetal calf serum and 1-2 mM glutamine. The membrane preparation was performed as described in section 1. […] Non-specific binding was defined with 1 μM methiothepin. The binding reaction was carried out for 3.5 h at room temperature. During the incubation, the plates were shaken on a plate shaker at 100 rpm and terminated by filtration on Packard Unifilter GF/C (0.1% PEI) plates, followed by 2 wash cycles with ice-cold 50 mM Tris-HCl, 5 mM CaCl2.
Data derived from liquid scintillation counting were analyzed by iterative non-linear regression analysis with the use of the Statistical Analysis System (SAS): a program similar to “LIGAND” as described by Munson and Rodbard (Anal. Biochem. 1980, 107, 220-239). Fitting was performed according to formulae described by Feldman (Anal. Biochem. 1972, 48, 317-338). IC50, nH and Ki values were expressed as geometrical mean.

T2 sequence (P50406 whole entry): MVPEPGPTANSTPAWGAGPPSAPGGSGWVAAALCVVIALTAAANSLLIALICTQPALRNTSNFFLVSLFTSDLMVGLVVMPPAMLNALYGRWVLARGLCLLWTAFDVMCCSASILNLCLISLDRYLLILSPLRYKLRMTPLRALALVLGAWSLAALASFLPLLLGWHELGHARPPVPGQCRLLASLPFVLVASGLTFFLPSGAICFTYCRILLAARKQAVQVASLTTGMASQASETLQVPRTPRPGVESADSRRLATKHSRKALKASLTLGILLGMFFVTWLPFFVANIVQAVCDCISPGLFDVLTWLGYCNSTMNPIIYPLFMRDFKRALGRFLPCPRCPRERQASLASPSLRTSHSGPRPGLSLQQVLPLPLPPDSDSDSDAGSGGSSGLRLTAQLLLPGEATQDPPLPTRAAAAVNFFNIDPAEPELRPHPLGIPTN

Row | Compound | Ki [µM]
2 | O=S(=O)(c1ccccc1)c1cnc2c(C3CNC3)cccc2c1 [Example 1, 8-(Azetidin-3-yl)-3-(phenylsulfonyl)quinoline hydrochloride] | < 0.1
3 | O=S(=O)(c1ccccc1)c1cnc2c(C3CCNCC3)cccc2c1 [Example 2, 3-(Phenylsulfonyl)-8-(piperidin-4-yl)quinoline hydrochloride] | < 0.1
4 | O=S(=O)(c1ccccc1)c1cnc2c(C3CCN(Cc4ccccc4)C3)cccc2c1 (centres unmarked) [Example 3, 8-(1-Benzylpyrrolidin-3-yl)-3-(phenylsulfonyl)quinoline] | > 1
5 | O=S(=O)(c1cccc(C(F)(F)F)c1)c1cnc2c(C3CCNCC3)cccc2c1 [Example 4, 8-(Piperidin-4-yl)-3-(3-(trifluoromethyl)phenylsulfonyl)quinoline] | < 0.1
6 | O=S(=O)(c1ccc(F)cc1)c1cnc2c(C3CCNCC3)cccc2c1 [Example 5, 3-(4-Fluorophenylsulfonyl)-8-(piperidin-4-yl)quinoline] | < 0.1
7 | O=S(=O)(c1cccc(Br)c1)c1cnc2c(C3CCNCC3)cccc2c1 [Example 6, 3-(3-Bromophenylsulfonyl)-8-(piperidin-4-yl)quinoline] | < 0.1
8 | O=S(=O)(c1cccc(N2CCCC2)c1)c1cnc2c(C3CCNCC3)cccc2c1 [Example 7, 8-(Piperidin-4-yl)-3-(3-(pyrrolidin-1-yl)phenylsulfonyl)quinoline] | < 0.1
